Experimental data: US20230257429A1, “PEPTIDE ADJUVANT FOR ITS THERAPEUTIC APPLICATIONS IN VIRAL AND TUMOUR VACCINE DEVELOPMENT AND CANCER IMMUNOTHERAPY AND AUTOIMMUNE DISEASE DIAGNOSIS AND TREATMENTS” (National University of Singapore, priority 2020, published 2023)

How the values were obtained:
MyD88 = target: T1, MyD88 (Homo sapiens, UniProt Q99836); experiment: MyD88 inhibitor pre-treatment before stimulation, cytokine ELISA; type: cell-based; conditions: monocytes, st-2825 30 μM, 1 hr pre-incubation
T1 construct: endogenous in cells; host or cells: PBMC / monocytes from blood donors
Protocol: (§1) In some experiments, cells were pre-treated with the MyD88 inhibitor st-2825 (MedChemExpress) or the Caspase-1 inhibitor Ac-YVAD (InvivoGen) for 1 hr before stimulation with TLR ligands or the purified nuclear proteins. In some other experiments, cells were pre-incubated for 1 hr with anti-TLR2, TLR4 and TLR5 antibodies (InvivoGen) before stimulation. The optimal st-2825 and Ac-YVAD concentrations were determined based on both their effects on cell viability and LPS-induced cytokine production. Cell viability was determined using the CELLTITER 96® AQueous One Solution Cell Proliferation (MTS) Assay (Promega).
We then examined whether NCL still induces cytokines when MyD88 is inhibited [Kawai, T. and Akira, S., Semin Immunol 19: 24-32 (2007)]. A MyD88 inhibitor st-2825 was used in this experiment (FIG. 3A). Its optimal concentration was, after titration of its cytotoxicity and its inhibition of LPS-induced cytokine production, determined to be 30 μM (FIG. 5). […] The inhibition of TNFα production by Ac-YVAD could be explained by its blocking autocrine monocytes activation through the IL-1β these cells produce (FIG. 4).

monocytes [1] = experiment: Monocyte activation, TNFα and IL-1β ELISA; type: cell-based, human; conditions: protein coated on plates, 24 hr, ELISA
Protocol: (§2) Buffy coat fractions were obtained from healthy blood donors at the Singapore Health Sciences Authority, with Institutional ethics approval, and PBMC were isolated using Ficoll-Paque (GE Healthcare). To isolate monocytes, PBMC were re-suspended to 1×10^7 cells/ml in the RPMI medium contained 5% (v/v) BCS and incubated for 1 hr in T75 flasks (20 ml/flask). Monocytes that adhered were harvested. To culture macrophages and DC [Cao, W., et al., Blood 107: 2777-2785, (2006), incorporated herein by reference], monocytes were resuspended to 1×10^6 cells/ml and cultured in 6-well plates (2 ml/well). Macrophages were cultured by adding M-CSF to 20 ng/ml and DC were cultured with 20 ng/ml GM-CSF and 40 ng/ml IL-4. M-CSF, GM-CSF and IL-4 were obtained from R&D Systems (Mineapolis, Minn.). Cells were cultured for 6 days with half of the media being replenished every two days.
[…] Where TLR ligands were used to stimulate these cells, they were added to the media: LPS (500 ng/ml for DC and macrophages and 10 ng/ml for PMBC and monocytes, InvivoGen), flagellin (1 μg/ml, InvivoGen), lipoteichic acid (LTA, 10 μg/ml). Cell activation was determined by measuring TNFα and IL-1β in the culture media using ELISA kits (Invitrogen).

monocytes [2] = experiment: TLR-blocking antibody pre-incubation before stimulation, TNFα; type: cell-based, human; conditions: monocytes pre-incubated with blocking antibody
Protocol: as §1
Therefore, TLR2 is clearly a sensing receptor for NCL as well as HMGB1. We then further analyzed the contribution of TLR2, TLR4 and TLR5 to NCL and HMGB1 recognition in their natural cellular contexts. Monocytes were pre-incubated with antibodies that were known to block each of these TLRs and then stimulated with the respective microbial ligands i.e. lipoteichoic acid (LTA), LPS and flagellin (FIG. 3E). […] NCL is a 710-amino acid protein and it is interesting to identify the specific NCL region that activates TLR2.

TLR5 = target: T2, TLR5 (Homo sapiens, UniProt O60602); experiment: TLR and NF-κB-luciferase assay in 293T cells, TLR5; type: cell-based; conditions: protein-coated plates
T2 construct: expressed in transfected cells; host or cells: human embryonic kidney 293T cells
Protocol: (§3) TLR-mediated NF-κB activation was determined using a Dual Luciferase Reporter Assay (Promega), in which two luciferase reporter plasmids were used. One plasmid expresses the firefly luciferase under the regulation of inducible NF-κB promoter and the other plasmid expresses the Renilla luciferase under a constitutively active CMV promoter [Zhang, H., et al., FEBS Lett 532: 171-176 (2002)]. Besides these luciferase vectors, cells were co-transfected with vectors coding for human TLRs or, in the case of TLR4, co-transfected with CD14 and MD2 [according to Zhang, H., et al., J. FEBS Lett 532: 171-176 (2002), incorporated herein by reference]. Transfection was performed using the TurboFect Transfection Reagent (Thermo Fisher Scientific). After 24 hr, cells were harvested and cultured for 24 hr in 96-well plates coated with the purified proteins or, as controls, cultured in blank plates but stimulated with TLR ligands. Cells were lysed to measure both firefly and Renilla luciferase activities and, in each sample, the firefly activity was normalized to the Renilla luciferase activity and expressed as relative NF-κB activation. […]

TLR4/CD14/MD2 = target: T3, TLR4/CD14/MD2 (Homo sapiens, UniProt O00206); experiment: TLR and NF-κB-luciferase assay in 293T cells, TLR4/CD14/MD2; type: cell-based; conditions: on top of high TLR4 autoactivation
T3 construct: expressed in transfected cells; host or cells: human embryonic kidney 293T cells
Protocol: as §3

PBMC [3] = experiment: PBMC activation, TNFα and IL-1β ELISA; type: cell-based, human; conditions: 2.5, 5.0, 10, 14, 18 and 24 hr
TLR2 = TLR2 (Homo sapiens, UniProt O60603); experiment: TLR and NF-κB-luciferase assay in 293T cells, TLR2/TLR1/TLR6/TLR10; type: cell-based; parameters: expressed in transfected cells; host or cells: human embryonic kidney 293T cells
Protocol: TLR-mediated NF-κB activation was determined using a Dual Luciferase Reporter Assay (Promega), in which two luciferase reporter plasmids were used. […] Transfection was performed using the TurboFect Transfection Reagent (Thermo Fisher Scientific). After 24 hr, cells were harvested and cultured for 24 hr in 96-well plates coated with the purified proteins or, as controls, cultured in blank plates but stimulated with TLR ligands. Cells were lysed to measure both firefly and Renilla luciferase activities and, in each sample, the firefly activity was normalized to the Renilla luciferase activity and expressed as relative NF-κB activation.
TLRs and, where it required, co-receptors were co-transfected in a total of 4 combinations, i.e. TLR2/1/6/10, TLR4/CD14/MD2, TLR5, or TLR3/7/8/9. Two luciferase expression vectors were used: one expresses the firefly luciferase under 5 repeats of the NF-κB gene promoter and the other expresses the Renilla luciferase under the constitutively active CMV promoter (FIG. 3A).

PBMC [4] = experiment: PBMC activation, TNFα and IL-1β ELISA; type: cell-based, human; conditions: protein coated on plates, 24 hr, ELISA
Protocol: as §2
(§4) Purified proteins in PBS (30 μg/ml) were coated in triplicates in 96-well plates (50 μl/well) for 12 hr and PBMC (3×10^6 cells/ml), monocytes (1×10^6 cells/ml), macrophages (0.5×10^6 cells/ml) or DC (0.5×10^6 cells/ml) were re-suspended in macrophage serum-free medium containing penicillin and streptomycin and cultured for 24 hr in these plates at 100 μl/well. Where TLR ligands were used to stimulate these cells, they were added to the media: LPS (500 ng/ml for DC and macrophages and 10 ng/ml for PMBC and monocytes, InvivoGen), flagellin (1 μg/ml, InvivoGen), lipoteichic acid (LTA, 10 μg/ml). Cell activation was determined by measuring TNFα and IL-1β in the culture media using ELISA kits (Invitrogen).

[5] = test system: dendritic cells (DC) and macrophages; experiment: DC and macrophage activation, cytokine ELISA; type: cell-based, human; conditions: protein coated on plates
Protocol: as §2
as §4, with “Where TLR ligands were used to stimulate these cells, they were added to the media: LPS (500 ng/ml for DC and macrophages and 10 ng/ml for PMBC and monocytes, InvivoGen), flagellin (1 μg/ml, InvivoGen), lipoteichic acid (LTA, 10 μg/ml).” left out

[6] = test system: autologous CD4 and CD8 T cells; experiment: Antigen-loaded DC co-culture with autologous lymphocytes, proliferation; type: cell-based, human; conditions: DC:T 1:5, 2 weeks co-culture, CellTrace Violet
Protocol: PBMC were isolated from healthy blood donors from which monocytes were isolated to culture DC and the remaining cells (mostly lymphocytes) were stored frozen as a source of autologous lymphocytes. DC were then incubated for 24 hr with P2+G, IPA1E2 or the IPA1E2-P2+G fusion polypeptide (SEQ ID NO: 58) in round bottom 96-well plates (5×10^4 cells/well) without adding additional adjuvants. The frozen lymphocytes were revived and labelled with CellTrace Violet (2.5 μM) for 10 min at 37° C. and then added to the DC wells at 2.5×10^5 cells/well (DC:T ratio=1:5). After 2 weeks of co-culture, the proliferation of CD4+ and CD8+ T cell and CD19+ B cell was analyzed by flow cytometry.

TLR2, sequence (O60603 21-784): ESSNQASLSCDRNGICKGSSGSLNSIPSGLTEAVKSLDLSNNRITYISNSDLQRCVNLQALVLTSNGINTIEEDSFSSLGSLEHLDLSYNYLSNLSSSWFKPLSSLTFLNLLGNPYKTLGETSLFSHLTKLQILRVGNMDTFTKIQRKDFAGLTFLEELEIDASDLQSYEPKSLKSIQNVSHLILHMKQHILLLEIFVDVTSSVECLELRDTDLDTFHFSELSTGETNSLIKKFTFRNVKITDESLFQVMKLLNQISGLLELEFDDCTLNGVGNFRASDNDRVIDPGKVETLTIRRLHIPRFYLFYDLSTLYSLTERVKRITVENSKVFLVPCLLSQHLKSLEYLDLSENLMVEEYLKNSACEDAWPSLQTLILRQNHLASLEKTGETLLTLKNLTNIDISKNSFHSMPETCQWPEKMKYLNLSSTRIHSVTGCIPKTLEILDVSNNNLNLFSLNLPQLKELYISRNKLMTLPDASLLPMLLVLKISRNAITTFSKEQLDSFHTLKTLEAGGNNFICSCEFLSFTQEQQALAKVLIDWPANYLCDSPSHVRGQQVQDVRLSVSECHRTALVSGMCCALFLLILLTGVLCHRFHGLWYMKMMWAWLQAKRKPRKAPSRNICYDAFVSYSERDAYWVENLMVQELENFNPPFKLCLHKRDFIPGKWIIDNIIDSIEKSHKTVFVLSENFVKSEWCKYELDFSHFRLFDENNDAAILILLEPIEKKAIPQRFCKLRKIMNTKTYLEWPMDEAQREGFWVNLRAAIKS
T1 sequence (Q99836 whole entry): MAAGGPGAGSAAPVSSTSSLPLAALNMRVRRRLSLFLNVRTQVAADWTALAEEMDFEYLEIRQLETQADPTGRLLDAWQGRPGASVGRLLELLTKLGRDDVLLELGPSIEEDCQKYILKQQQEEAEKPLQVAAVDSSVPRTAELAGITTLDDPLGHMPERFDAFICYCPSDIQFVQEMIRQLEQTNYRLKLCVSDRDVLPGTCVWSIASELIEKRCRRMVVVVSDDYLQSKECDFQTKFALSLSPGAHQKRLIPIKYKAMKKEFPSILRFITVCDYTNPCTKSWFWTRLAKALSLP
T3 sequence (O00206 24-839): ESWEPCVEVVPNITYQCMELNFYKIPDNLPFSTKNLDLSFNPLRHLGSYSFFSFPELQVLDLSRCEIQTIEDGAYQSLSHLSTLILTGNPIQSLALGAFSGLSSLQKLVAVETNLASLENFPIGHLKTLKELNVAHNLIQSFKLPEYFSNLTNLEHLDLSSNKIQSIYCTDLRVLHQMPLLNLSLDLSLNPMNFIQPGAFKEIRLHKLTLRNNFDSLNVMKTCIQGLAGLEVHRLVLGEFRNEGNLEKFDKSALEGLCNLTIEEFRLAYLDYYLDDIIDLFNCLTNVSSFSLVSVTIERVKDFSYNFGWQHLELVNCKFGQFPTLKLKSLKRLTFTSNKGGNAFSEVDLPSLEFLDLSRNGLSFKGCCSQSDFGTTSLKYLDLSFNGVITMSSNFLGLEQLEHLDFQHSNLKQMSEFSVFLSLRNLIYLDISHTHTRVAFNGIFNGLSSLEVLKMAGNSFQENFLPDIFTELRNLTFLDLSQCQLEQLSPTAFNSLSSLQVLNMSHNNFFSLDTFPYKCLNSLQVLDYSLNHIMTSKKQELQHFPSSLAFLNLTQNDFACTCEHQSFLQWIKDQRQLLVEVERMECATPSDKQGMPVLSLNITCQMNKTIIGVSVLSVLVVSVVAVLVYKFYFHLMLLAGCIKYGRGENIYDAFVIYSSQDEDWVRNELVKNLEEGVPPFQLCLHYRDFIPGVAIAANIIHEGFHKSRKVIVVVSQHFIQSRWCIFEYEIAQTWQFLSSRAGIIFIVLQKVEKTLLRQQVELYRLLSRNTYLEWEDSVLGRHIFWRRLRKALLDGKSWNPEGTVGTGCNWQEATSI
T3 sequence (Q9Y6Y9 19-160 partner): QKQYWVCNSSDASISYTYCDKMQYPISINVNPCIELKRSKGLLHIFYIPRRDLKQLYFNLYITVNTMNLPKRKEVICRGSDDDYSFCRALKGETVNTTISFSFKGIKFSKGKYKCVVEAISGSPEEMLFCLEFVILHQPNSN
T2 sequence (O60602 21-858): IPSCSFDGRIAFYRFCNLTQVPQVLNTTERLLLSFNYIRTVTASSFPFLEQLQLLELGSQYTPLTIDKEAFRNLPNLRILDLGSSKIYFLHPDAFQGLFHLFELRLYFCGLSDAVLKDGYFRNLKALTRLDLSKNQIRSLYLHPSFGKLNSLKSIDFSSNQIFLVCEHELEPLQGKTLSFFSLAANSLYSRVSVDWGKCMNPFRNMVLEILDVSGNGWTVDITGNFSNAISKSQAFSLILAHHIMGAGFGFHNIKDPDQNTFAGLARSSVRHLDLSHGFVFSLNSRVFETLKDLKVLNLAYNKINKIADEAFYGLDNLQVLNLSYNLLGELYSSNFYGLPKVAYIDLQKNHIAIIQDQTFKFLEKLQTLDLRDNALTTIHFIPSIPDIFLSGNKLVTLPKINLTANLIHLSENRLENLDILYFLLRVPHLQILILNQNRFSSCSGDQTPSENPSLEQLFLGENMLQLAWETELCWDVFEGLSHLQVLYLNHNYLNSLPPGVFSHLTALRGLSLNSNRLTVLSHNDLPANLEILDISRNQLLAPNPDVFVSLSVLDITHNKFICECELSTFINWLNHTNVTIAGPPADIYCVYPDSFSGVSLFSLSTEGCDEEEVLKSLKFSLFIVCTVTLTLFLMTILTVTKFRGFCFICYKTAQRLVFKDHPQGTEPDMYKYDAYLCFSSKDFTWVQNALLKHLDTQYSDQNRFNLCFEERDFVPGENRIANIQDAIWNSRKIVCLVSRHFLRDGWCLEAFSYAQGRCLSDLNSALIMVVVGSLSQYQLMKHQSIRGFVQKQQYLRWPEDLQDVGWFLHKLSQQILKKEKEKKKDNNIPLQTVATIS

Which “inhibition of HMGB1 and LPS induction of TNFα and IL-1β” value (MyD88) does the source give for `NC(=O)[C@H]1CCS[C@@H]2C[C@]3(CCCN3C(=O)Cc3ccc(NC(=O)COc4ccc(Cl)cc4Cl)cc3)C(=O)N12` [st-2825] here?
The value was “also inhibited”.

And the “inhibition of NCL induction of TNFα and IL-1β” value (MyD88)?
The value was “partially but significantly inhibited”.

Which results are given for “HMGB1: HMGB1 purified from T×NE as an alarmin control”?
TNFα and IL-1β production from monocytes (monocytes [1]): HMGB1 did; effect of TLR2 antibody on TNFα production induced by the protein (monocytes [2]): significantly inhibited; effect of TLR4 antibody on TNFα production induced by the protein (monocytes [2]): significantly inhibited; effect of TLR5 antibody on TNFα production induced by the protein (monocytes [2]): significantly inhibited; NF-κB activation via TLR5 (TLR5): consistently activated TLR5; NF-κB activation via TLR4/CD14/MD2 (TLR4/CD14/MD2): marginal but significant additional TLR4 activation; kinetics of IL-1β induction from PBMC (PBMC [3]): rapidly surged to plateau; kinetics of TNFα induction from PBMC (PBMC [3]): linear early increase but a noticeable late surge; TLR2 response when expressed without TLR1/TLR6/TLR10 or co-expressed with TLR5 (TLR2): not significantly affected; NF-κB activation via TLR2/TLR1/TLR6/TLR10 combination (TLR2; protein-coated plates, 24 hr): prominent activation; TNFα and IL-1β production from PBMC (PBMC [4]): HMGB1 did; cytokine production from dendritic cells (DC) and macrophages [5]: also induced cytokine production

B1: IPA1E2-P2+G: P2+G synthesized in fusion with the 30-AA peptide antigen IPA1E2 (peptide)
chain: GQGQLVKRPKIMRFISHLWLALESANSEKRGGFGGRGGGRGGRGGFGGRGGRGGFGGRGGFRGGRGG
modifications: IPA1E2-P2+G
notes: P2+G synthesized in fusion with the 30-AA peptide antigen IPA1E2
Which “T cell proliferation / activation induced by peptide-loaded DC” value [6] does the source give for B1 here?
Its value is “significantly increased T cell proliferation”.
